Data from PubChem BioAssay AID330 (DTP/NCI, 2004).
“And” between values parts separate entries of the source, which are not always exact repeats. Identical values can stand only once. Inconclusive results and toxic doses are left out. The calls were made as follows: active = survival T/C of 150% or more; inactive = T/C below 125% in these data.

System: P388 leukemia ip, CD2F1 mice, survival T/C
Assay: NCI In Vivo Anticancer Drug Screen. Data for tumor model P388 Leukemia (intraperitoneal) in CD2F1 (CDF1) mice
Conditions: endpoint: median survival time, higher = longer survival
Method in brief: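 Mice carrying the transplanted tumor received test compound or vehicle. Survival was recorded in each group, and the value is the treated-group measurement divided by that of the vehicle-treated control group.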

[1] = dose: 50.0 mg/kg/injection, schedule: Q01DX005 (ip), vehicle: Klucel (hydroxypropylcellulose) (HPC)
[2] = dose: 100.0 mg/kg/injection, schedule: Q01DX005 (ip), vehicle: Klucel (hydroxypropylcellulose) (HPC)
[3] = dose: 200.0 mg/kg/injection, schedule: Q01DX005 (ip), vehicle: Klucel (hydroxypropylcellulose) (HPC)
[4] = dose: 100.0 mg/kg/injection, schedule: Q01DX009 (ip), vehicle: saline with Tween-80
[5] = dose: 60.0 mg/kg/injection, schedule: Q01DX005 (ip), vehicle: saline with Tween-80
[6] = dose: 120.0 mg/kg/injection, schedule: Q01DX005 (ip), vehicle: saline with Tween-80
[7] = dose: 240.0 mg/kg/injection, schedule: Q01DX005 (ip), vehicle: saline with Tween-80

Measured: T/C

CCCNC(=S)Nc1ncco1
inactive: dose: 50.0 mg/kg/injection, schedule: Q01DX009 (ip), vehicle: saline 100 % of control | dose: 100.0 mg/kg/injection, schedule: Q01DX009 (ip), vehicle: saline 96 % of control | dose: 200.0 mg/kg/injection, schedule: Q01DX009 (ip), vehicle: saline 111 % of control

O=c1[nH]c(=S)[nH]c2c(=O)[nH]c(=S)[nH]c12
inactive: dose: 12.5 mg/kg/injection, schedule: Q01DX009 (ip), vehicle: Klucel (hydroxypropylcellulose) (HPC) 107 % of control | dose: 25.0 mg/kg/injection, schedule: Q01DX009 (ip), vehicle: Klucel (hydroxypropylcellulose) (HPC) 101 % of control | dose: 50.0 mg/kg/injection, schedule: Q01DX009 (ip), vehicle: Klucel (hydroxypropylcellulose) (HPC) 101 % of control and 111 % of control

Cc1nc2c(cnn2CN2CCCCC2)c(=O)n1-c1ccccc1
inactive: [1] 100 % of control | [2] 101 % of control | [3] 107 % of control

CN(C)CCC1(C)OCCC2=C1Cc1ccccc12 (stereo unspecified)
inactive: dose: 50.0 mg/kg/injection, schedule: Q01DX009 (ip), vehicle: saline with Tween-80 91 % of control | [4] 99 % of control

C[As](C)SC1CCC2(C)C(=CCC3C4CCC(=O)C4(C)CCC32)C1 (stereo unspecified)
inactive: dose: 12.5 mg/kg/injection, schedule: Q01DX009 (ip), vehicle: distilled water + Tween-80 92 % of control | dose: 25.0 mg/kg/injection, schedule: Q01DX009 (ip), vehicle: distilled water + Tween-80 89 % of control and 96 % of control | dose: 50.0 mg/kg/injection, schedule: Q01DX009 (ip), vehicle: distilled water + Tween-80 107 % of control and 97 % of control | dose: 100.0 mg/kg/injection, schedule: Q01DX009 (ip), vehicle: distilled water + Tween-80 119 % of control and 121 % of control | dose: 200.0 mg/kg/injection, schedule: Q01DX009 (ip), vehicle: distilled water + Tween-80 107 % of control and 90 % of control

COc1ccc(CCN2COc3ccc4ccc(=O)oc4c3C2)cc1OC
inactive: [4] 100 % of control | dose: 100.0 mg/kg/injection, schedule: Q04DX003 (ip), vehicle: saline with Tween-80 110 % of control | dose: 200.0 mg/kg/injection, schedule: Q04DX003 (ip), vehicle: saline with Tween-80 115 % of control | dose: 400.0 mg/kg/injection, schedule: Q01DX009 (ip), vehicle: saline with Tween-80 100 % of control | dose: 400.0 mg/kg/injection, schedule: Q04DX003 (ip), vehicle: saline with Tween-80 110 % of control

CCOC(=O)c1ccc(Nc2nc(NNC(=O)c3ccncc3)nc(Nc3ccc(C)cc3)n2)cc1
inactive: [5] 99 % of control | [6] 99 % of control | [7] 99 % of control

CN1C(=O)CCC1c1nc2ccccc2[nH]1 (stereo unspecified)
inactive: [5] 102 % of control | [6] 101 % of control | [7] 96 % of control

IP1c2ccccc2P2P(I)c3ccccc3P12 (stereo unspecified)
inactive: [1] 102 % of control | [2] 108 % of control | [3] 105 % of control

COc1cc([N+](=O)[O-])c(OC)c2c(=O)[nH]c(=O)[nH]c12
inactive: dose: 6.25 mg/kg/injection, schedule: Q01DX005 (ip), vehicle: Klucel (hydroxypropylcellulose) (HPC) 98 % of control | dose: 12.5 mg/kg/injection, schedule: Q01DX005 (ip), vehicle: Klucel (hydroxypropylcellulose) (HPC) 90 % of control

Cc1ccc(S(=O)(=O)CC2(Br)CCc3ccccc3C2=O)cc1 (stereo unspecified)
inactive: dose: 100.0 mg/kg/injection, schedule: Q04DX003 (ip), vehicle: saline 97 % of control | dose: 200.0 mg/kg/injection, schedule: Q04DX003 (ip), vehicle: saline 91 % of control | dose: 400.0 mg/kg/injection, schedule: Q04DX003 (ip), vehicle: saline 95 % of control

COc1ccc(C(NC(N)=O)c2cc3c(cc2OC(C)=O)OCO3)c(OC)c1 (stereo unspecified)
inactive: dose: 15.0 mg/kg/injection, schedule: Q01DX005 (ip), vehicle: Klucel (hydroxypropylcellulose) (HPC) 91 % of control | dose: 30.0 mg/kg/injection, schedule: Q01DX005 (ip), vehicle: Klucel (hydroxypropylcellulose) (HPC) 92 % of control | dose: 60.0 mg/kg/injection, schedule: Q01DX005 (ip), vehicle: Klucel (hydroxypropylcellulose) (HPC) 90 % of control and 91 % of control

C/C=C1/CNC2Cc3c([nH]c4ccccc34)C(c3ccc4c5c([nH]c4c3)C3CC4CC(CC)C3N(CC5)C4)CC1C2C(=O)OC (stereo unspecified)
inactive: dose: 2.5 mg/kg/injection, schedule: Q01DX009 (ip), vehicle: saline 106 % of control | dose: 5.0 mg/kg/injection, schedule: Q01DX009 (ip), vehicle: saline 100 % of control

CC(=O)OC1CC2(OC(C)=O)CC(OC2=O)C1OC(C)=O (stereo unspecified)
inactive: dose: 100.0 mg/kg/injection, schedule: Q01DX001 (ip), vehicle: Klucel (hydroxypropylcellulose) (HPC) 100 % of control | dose: 100.0 mg/kg/injection, schedule: Q04DX002 (ip), vehicle: Klucel (hydroxypropylcellulose) (HPC) 100 % of control | dose: 200.0 mg/kg/injection, schedule: Q01DX001 (ip), vehicle: Klucel (hydroxypropylcellulose) (HPC) 100 % of control | dose: 200.0 mg/kg/injection, schedule: Q04DX002 (ip), vehicle: Klucel (hydroxypropylcellulose) (HPC) 100 % of control | dose: 400.0 mg/kg/injection, schedule: Q01DX001 (ip), vehicle: Klucel (hydroxypropylcellulose) (HPC) 99 % of control | dose: 400.0 mg/kg/injection, schedule: Q04DX002 (ip), vehicle: Klucel (hydroxypropylcellulose) (HPC) 98 % of control
